# How the values were obtained:
# Type in all cases: biochemical
# Abl = biological target: T1, Abl (Homo sapiens, UniProt P00519); assay: AlphaScreen kinase assay, Abl; details: read-out: activity toward kinase Abl, IC50
# T1 construct: P1121. pET-SPEC BI-PTP Abl G227-V515-X; His6 (N); made in house; host or cells: E. coli (PTP1B co-expressed)
# T1 sequence (P00519 with tags, fused parts or gaps): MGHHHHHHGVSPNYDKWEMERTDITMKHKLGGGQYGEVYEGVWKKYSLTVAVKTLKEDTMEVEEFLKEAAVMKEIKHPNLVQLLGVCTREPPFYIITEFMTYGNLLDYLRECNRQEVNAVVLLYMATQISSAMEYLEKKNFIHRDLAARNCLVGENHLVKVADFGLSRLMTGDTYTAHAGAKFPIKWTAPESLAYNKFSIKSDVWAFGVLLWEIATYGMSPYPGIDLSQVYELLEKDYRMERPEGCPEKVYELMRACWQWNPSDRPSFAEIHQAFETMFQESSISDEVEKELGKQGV
# Method in brief: (§1)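 Here, phosphorylation of a biotin-tagged peptide was sensed by proximity of streptavidin donor and antibody-bearing acceptor beads. Test compounds covered 8 concentrations by 1:3 serial dilution of 20 mM DMSO stocks.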
# B-Raf = biological target: T2, B-Raf (Homo sapiens, UniProt P15056); assay: AlphaScreen kinase assay, B-Raf; details: read-out: IC50, activity toward kinase B-Raf
# T2 construct: purchased Upstate Biotechnology
# B-Raf V600E = biological target: T3, B-Raf V600E (Homo sapiens, UniProt P15056, V600E); assay: AlphaScreen kinase assay, B-Raf V600E; details: read-out: IC50, activity toward kinase B-Raf V600E
# T3 construct: P4254. pFastBacBD-CDC37 BRAF D437-K722-X, V600E; His6 with pFastBac HT leader (TEV site) (N); made in house; host or cells: Sf9 (baculovirus; chaperone CDC37 co-expressed)
# c-Raf-1 = biological target: T4, c-Raf-1 (Homo sapiens, UniProt P04049); assay: AlphaScreen kinase assay, c-Raf-1; details: read-out: IC50, activity toward kinase c-Raf-1
# T4 construct: purchased Upstate Biotechnology
# FGFR1 = biological target: T5, FGFR1 (Homo sapiens, UniProt P11362, C488A/C584S); assay: AlphaScreen kinase assay, FGFR1; details: read-out: IC50, activity toward kinase FGFR
# T5 construct: P1351.pET N6 BI-PTP FGFR A458-E765-X C488A, C584S; made in house; host or cells: E. coli (PTP1B co-expressed)
# T5 sequence (P11362 458-765 C488A/C584S): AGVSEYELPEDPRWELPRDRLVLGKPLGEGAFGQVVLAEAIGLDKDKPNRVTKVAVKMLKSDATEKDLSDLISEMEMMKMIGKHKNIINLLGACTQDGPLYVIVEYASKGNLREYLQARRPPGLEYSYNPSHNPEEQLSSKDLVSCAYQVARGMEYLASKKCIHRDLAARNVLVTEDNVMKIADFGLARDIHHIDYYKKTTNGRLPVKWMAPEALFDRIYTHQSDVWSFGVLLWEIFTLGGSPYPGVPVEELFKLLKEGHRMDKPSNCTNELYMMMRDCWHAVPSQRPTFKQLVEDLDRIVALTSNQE
# Flt1 = biological target: T6, Flt1 (Homo sapiens, UniProt P17948); assay: AlphaScreen kinase assay, Flt1; details: read-out: IC50, activity toward kinase Flt1
# T6 construct: P1826.pETN6 BI-PTP FLT1 M799-D1165-X WT; His6 (N); made in house; host or cells: E. coli (PTP1B co-expressed)
# T6 sequence (P17948 with tags, fused parts or gaps): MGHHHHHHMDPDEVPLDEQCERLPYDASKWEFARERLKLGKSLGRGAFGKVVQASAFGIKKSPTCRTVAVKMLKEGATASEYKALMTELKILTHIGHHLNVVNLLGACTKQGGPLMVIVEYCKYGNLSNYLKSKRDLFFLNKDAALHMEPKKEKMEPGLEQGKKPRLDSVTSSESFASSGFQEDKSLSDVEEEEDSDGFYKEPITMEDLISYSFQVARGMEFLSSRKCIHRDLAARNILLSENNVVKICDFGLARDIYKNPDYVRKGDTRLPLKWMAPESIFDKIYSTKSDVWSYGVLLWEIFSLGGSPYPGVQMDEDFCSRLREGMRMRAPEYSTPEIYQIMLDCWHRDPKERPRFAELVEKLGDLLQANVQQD
# Flt4 = biological target: T7, Flt4 (Homo sapiens, UniProt P35916); assay: AlphaScreen kinase assay, Flt4; details: read-out: IC50, activity toward kinase Flt4
# T7 construct: purchased ProQinase GmbH (Freiburg, Germany)
# T7 sequence (P35916 25-1363): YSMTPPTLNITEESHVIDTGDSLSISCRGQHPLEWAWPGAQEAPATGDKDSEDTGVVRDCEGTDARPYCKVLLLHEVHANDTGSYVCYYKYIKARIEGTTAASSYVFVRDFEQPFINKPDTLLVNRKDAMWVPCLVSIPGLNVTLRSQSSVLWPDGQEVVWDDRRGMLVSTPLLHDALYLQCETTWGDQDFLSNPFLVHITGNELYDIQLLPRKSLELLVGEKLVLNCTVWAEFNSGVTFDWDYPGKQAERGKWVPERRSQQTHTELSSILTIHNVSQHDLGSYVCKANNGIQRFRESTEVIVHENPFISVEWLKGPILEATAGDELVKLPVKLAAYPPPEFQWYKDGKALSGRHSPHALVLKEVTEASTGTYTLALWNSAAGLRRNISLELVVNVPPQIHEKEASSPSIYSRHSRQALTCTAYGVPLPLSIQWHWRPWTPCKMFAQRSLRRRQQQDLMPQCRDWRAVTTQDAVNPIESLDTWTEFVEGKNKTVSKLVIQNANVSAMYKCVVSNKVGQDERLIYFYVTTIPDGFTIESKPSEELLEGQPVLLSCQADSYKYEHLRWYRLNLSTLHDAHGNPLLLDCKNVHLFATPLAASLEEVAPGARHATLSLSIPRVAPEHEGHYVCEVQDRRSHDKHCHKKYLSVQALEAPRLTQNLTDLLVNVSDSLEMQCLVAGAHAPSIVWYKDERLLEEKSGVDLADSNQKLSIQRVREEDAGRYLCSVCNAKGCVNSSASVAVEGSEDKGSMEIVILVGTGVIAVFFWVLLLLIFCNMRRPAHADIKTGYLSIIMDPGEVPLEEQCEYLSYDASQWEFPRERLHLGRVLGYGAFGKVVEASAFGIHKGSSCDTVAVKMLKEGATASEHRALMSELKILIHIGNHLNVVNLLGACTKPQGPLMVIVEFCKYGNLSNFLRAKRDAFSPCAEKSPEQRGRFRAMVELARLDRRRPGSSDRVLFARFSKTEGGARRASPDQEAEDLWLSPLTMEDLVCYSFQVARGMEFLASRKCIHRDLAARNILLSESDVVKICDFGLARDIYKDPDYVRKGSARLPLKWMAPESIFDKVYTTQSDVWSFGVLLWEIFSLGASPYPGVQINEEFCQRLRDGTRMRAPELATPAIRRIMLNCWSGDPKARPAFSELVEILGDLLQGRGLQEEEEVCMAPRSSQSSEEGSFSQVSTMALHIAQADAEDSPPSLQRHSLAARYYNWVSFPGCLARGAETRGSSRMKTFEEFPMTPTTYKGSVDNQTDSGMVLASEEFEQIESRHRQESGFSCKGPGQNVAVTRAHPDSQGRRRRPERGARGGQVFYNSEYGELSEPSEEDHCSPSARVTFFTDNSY
# Description: AlphaScreen assay was used to screen additional kinases. The assay is similarly dependent on the phosphorylation of a peptide substrate. In this assay, an antibody that recognizes phosphorylated substrate is bound to an acceptor bead. The peptide substrate is attached to biotin, which binds to a donor head that contains streptavidin. Thus phosphorylated substrate is bound by antibody and streptavidin, bringing the donor and acceptor heads into close proximity when kinase is not inhibited. The donor produces singlet oxygen which results in emission from the acceptor when they are in close proximity. Conversely, when kinase is inhibited, the donor and acceptor beads are not associated and the emission from the acceptor is reduced.
# AlphaScreen assays were done using compounds dissolved in DMSO to a concentration of 20 mM. The compounds were diluted accordingly to the desired final concentrations in each sample well, using 1:3 serial dilution for a total of 8 concentration points.
# Fms = biological target: T8, Fms (Homo sapiens, UniProt P07333); assay: AlphaScreen kinase assay, Fms; details: read-out: IC50, activity toward kinase Fms
# T8 construct: purchased Upstate Biotechnology
# Jnk1 = biological target: T9, Jnk1 (Homo sapiens, UniProt P45983); assay: AlphaScreen kinase assay, Jnk1; details: read-out: IC50, activity toward kinase Jnk1
# T9 construct: purchased Upstate Biotechnology
# Jnk3 = biological target: T10, Jnk3 (Homo sapiens, UniProt P53779); assay: AlphaScreen kinase assay, Jnk3; details: read-out: IC50, activity toward kinase Jnk3
# T10 construct: purchased Upstate Biotechnology
# Kdr = biological target: T11, Kdr (Homo sapiens, UniProt P35968); assay: Z'-Lyte FRET kinase assay (Invitrogen), Kdr; details: read-out: IC50, activity toward kinase Kdr
# T11 construct: purchased Invitrogen (assay run by Invitrogen)
# T11 sequence (P35968 20-1356): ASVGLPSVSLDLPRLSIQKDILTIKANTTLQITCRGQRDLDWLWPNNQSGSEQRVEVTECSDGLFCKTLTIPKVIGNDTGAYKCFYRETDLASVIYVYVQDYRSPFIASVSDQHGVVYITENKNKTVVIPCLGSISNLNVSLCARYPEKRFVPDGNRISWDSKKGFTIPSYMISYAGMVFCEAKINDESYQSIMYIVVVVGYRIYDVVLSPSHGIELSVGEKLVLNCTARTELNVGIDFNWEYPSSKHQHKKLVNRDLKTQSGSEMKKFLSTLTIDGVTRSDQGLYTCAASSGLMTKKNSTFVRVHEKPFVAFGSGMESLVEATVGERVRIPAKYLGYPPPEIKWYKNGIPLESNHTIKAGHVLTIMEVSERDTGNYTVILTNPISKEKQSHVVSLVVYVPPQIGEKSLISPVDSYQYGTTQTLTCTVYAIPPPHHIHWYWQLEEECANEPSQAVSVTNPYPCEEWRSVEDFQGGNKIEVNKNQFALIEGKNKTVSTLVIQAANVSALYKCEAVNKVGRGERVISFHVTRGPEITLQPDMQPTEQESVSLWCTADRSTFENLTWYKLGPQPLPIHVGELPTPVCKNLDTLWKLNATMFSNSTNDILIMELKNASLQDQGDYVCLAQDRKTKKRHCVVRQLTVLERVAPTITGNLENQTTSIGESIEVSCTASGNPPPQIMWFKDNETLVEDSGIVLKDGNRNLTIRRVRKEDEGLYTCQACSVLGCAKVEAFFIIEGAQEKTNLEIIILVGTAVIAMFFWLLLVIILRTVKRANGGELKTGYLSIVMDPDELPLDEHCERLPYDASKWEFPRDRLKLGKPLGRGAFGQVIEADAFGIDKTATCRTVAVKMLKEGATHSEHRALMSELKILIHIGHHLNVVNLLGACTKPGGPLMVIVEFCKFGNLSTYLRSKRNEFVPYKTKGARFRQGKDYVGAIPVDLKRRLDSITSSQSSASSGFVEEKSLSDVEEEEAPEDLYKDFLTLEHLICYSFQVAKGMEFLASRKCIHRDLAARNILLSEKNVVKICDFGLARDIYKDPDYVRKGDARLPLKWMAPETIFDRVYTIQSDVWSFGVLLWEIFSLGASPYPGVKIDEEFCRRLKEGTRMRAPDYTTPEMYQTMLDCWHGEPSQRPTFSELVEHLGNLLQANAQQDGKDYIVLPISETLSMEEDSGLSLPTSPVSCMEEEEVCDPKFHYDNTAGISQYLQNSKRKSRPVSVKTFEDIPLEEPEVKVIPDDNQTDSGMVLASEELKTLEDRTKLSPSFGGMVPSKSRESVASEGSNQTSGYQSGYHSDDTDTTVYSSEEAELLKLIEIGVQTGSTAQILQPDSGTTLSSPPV
# Kit = biological target: T12, Kit (Homo sapiens, UniProt P10721); assay: AlphaScreen kinase assay, Kit; details: read-out: IC50, activity toward kinase Kit
# T12 construct: P1332.N6 BI PTP KIT M552-K948-X COD; His6 (N); made in house; host or cells: E. coli (PTP1B co-expressed)
# T12 sequence (P10721 with tags, fused parts or gaps): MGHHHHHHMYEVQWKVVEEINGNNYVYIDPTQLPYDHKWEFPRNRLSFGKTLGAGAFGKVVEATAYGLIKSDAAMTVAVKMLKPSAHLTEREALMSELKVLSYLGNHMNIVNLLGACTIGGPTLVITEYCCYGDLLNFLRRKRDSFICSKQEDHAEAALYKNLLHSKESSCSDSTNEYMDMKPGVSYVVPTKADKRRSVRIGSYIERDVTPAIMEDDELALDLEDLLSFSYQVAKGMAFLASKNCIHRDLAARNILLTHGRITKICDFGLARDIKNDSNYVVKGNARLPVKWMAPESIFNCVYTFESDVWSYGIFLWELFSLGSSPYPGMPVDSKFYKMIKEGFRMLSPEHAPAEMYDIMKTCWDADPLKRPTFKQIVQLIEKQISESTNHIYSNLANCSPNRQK
# Pyk2 = biological target: T13, Pyk2 (Homo sapiens, UniProt Q14289); assay: AlphaScreen kinase assay, Pyk2; details: read-out: IC50, activity toward kinase Pyk2
# T13 construct: purchased Upstate Biotechnology
# T13 sequence (Q14289 whole entry): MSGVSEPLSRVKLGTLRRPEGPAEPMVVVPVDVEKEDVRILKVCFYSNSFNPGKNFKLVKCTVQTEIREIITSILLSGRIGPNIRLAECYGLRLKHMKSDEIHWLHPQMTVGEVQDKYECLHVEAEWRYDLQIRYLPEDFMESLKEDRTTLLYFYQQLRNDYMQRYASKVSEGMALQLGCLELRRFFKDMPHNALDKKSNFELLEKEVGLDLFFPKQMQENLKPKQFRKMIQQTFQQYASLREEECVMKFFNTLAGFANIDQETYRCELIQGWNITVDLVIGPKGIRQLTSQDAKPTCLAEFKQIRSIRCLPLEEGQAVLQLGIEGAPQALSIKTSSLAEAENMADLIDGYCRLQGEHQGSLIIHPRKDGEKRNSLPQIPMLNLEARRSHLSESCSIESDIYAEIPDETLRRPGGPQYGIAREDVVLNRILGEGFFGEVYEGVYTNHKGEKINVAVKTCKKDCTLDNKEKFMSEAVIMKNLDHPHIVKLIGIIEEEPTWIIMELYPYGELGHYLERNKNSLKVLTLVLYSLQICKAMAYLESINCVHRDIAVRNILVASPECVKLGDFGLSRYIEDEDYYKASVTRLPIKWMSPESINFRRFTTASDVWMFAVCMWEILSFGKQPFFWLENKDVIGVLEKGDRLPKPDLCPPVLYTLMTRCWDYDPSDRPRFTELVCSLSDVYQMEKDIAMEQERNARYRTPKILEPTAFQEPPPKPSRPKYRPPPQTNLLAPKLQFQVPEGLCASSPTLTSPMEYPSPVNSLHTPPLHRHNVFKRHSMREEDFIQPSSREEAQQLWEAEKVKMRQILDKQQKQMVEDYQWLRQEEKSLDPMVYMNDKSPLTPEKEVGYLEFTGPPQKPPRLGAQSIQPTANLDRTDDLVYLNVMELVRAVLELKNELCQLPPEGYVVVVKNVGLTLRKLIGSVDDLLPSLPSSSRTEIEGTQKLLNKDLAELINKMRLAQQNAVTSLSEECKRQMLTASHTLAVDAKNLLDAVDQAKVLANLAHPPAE
# Ret = biological target: T14, Ret (Homo sapiens, UniProt P07949); assay: AlphaScreen kinase assay, Ret; details: read-out: IC50, activity toward kinase Ret
# T14 construct: P1378.pET-SF BI-PTP RET H661-R1012 HIS; made in house
# T14 sequence (P07949 with tags, fused parts or gaps): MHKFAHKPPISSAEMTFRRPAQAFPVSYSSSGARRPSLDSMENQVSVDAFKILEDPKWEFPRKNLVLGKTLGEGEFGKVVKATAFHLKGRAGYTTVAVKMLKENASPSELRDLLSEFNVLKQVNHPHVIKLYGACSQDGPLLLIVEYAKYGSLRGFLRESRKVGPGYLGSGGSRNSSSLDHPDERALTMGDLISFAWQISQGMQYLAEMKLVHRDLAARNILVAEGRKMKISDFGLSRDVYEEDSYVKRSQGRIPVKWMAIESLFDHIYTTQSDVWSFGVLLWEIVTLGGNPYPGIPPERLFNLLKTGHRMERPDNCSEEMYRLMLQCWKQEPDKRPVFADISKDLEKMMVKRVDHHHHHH
# Src = biological target: T15, Src (Homo sapiens, UniProt P12931); assay: AlphaScreen kinase assay, Src; details: read-out: IC50, activity toward kinase Src
# T15 construct: P1144. pET-N6 BI-PTP SRC V86-L536-X; made in house
# Jnk2 = biological target: T16, Jnk2 (Homo sapiens, UniProt P45984); assay: AlphaScreen kinase assay, Jnk2; details: read-out: IC50, activity toward kinase Jnk2
# T16 construct: purchased Roche Protein Expression Group (Indianapolis, IN)
# Method in brief: as §1
# Met = biological target: T17, Met (Homo sapiens, UniProt P08581); assay: AlphaScreen kinase assay, Met; details: read-out: IC50, activity toward kinase Met
# T17 construct: P1818.pETN6 BI-PTP MET G1056-G1364-X WT; His6 (N); made in house; host or cells: E. coli (PTP1B co-expressed)
# Method in brief: as §1
# Stk6 = biological target: T18, Stk6 (Homo sapiens, UniProt O14965); assay: Z'-Lyte FRET kinase assay (Invitrogen), Stk6; details: read-out: IC50, activity toward kinase Stk6
# T18 construct: purchased Invitrogen (Carlsbad, Calif.), screening service
# T18 sequence (O14965 1-403): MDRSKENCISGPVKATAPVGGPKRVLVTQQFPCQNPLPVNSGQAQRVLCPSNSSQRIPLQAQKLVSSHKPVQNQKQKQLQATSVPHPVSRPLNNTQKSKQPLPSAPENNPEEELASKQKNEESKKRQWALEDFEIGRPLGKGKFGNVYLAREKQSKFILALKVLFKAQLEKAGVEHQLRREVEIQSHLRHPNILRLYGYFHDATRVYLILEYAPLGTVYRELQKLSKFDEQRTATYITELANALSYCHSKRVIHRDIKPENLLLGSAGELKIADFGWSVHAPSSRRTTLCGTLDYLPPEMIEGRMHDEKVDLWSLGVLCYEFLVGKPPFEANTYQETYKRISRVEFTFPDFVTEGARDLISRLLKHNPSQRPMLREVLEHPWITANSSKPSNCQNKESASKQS
# MAP2K1 = biological target: T19, MAP2K1 (Homo sapiens, UniProt Q02750); assay: Z'-Lyte FRET kinase assay (Invitrogen), MAP2K1; details: read-out: IC50, activity toward kinase MAP2K1
# T19 construct: purchased Invitrogen (assay run by Invitrogen)
# T19 sequence (Q02750 whole entry): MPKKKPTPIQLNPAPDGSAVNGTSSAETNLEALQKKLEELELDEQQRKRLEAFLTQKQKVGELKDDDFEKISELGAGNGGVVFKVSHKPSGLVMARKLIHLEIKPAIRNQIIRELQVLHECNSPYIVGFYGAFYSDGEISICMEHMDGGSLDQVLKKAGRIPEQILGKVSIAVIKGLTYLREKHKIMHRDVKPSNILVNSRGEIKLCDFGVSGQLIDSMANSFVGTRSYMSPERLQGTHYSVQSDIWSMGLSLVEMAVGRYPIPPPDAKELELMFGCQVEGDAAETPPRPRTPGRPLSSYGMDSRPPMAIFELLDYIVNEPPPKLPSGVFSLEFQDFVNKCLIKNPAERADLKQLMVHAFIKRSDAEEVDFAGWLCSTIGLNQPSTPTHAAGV
# MAP4K4 = MAP4K4 (Homo sapiens, UniProt O95819); assay: AlphaScreen kinase assay, MAP4K4; details: read-out: IC50, activity toward kinase MAP4K4
SMILES,IC50 (Abl),IC50 (FGFR1),IC50 (Flt1),IC50 (Flt4),IC50 (Jnk3),IC50 (Kdr),IC50 (Kit),IC50 (Pyk2),IC50 (Ret),IC50 (MAP2K1),also measured
O=C(c1cc(O)ccc1F)c1c[nH]c2ncc(-c3cccnc3)cc12 [Compound P-0559],≤ 10 µM,≤ 10 µM,≤ 10 µM,≤ 10 µM,≤ 10 µM,≤ 10 µM,≤ 10 µM,≤ 10 µM,≤ 10 µM,–,IC50 (B-Raf): ≤ 10 µM; IC50 (B-Raf V600E): ≤ 10 µM; IC50 (c-Raf-1): ≤ 10 µM; IC50 (Fms): ≤ 10 µM; IC50 (Jnk1): ≤ 10 µM; IC50 (Src): ≤ 10 µM
O=C1NCc2ccccc2N1Cc1c[nH]c2ncccc12 [Compound P-0194],–,–,≤ 10 µM,–,–,≤ 10 µM,–,–,–,≤ 10 µM,–
CS(=O)(=O)Nc1cccc(C(=O)c2c[nH]c3ncccc23)c1 [Compound P-0198],–,≤ 10 µM,–,–,–,≤ 10 µM,–,–,–,≤ 10 µM,IC50 (MAP4K4): ≤ 10 µM

# Further lines, with some results ahead:
IC50 (Abl),IC50 (FGFR1),IC50 (Flt1),IC50 (Flt4),IC50 (Jnk3),IC50 (Kdr),IC50 (Kit),IC50 (Pyk2),IC50 (Ret),IC50 (MAP2K1),SMILES,also measured
≤ 10 µM,≤ 10 µM,–,≤ 10 µM,–,≤ 10 µM,≤ 10 µM,≤ 10 µM,≤ 10 µM,–,COc1cccc(Cc2c[nH]c3ncc(-c4cccs4)cc23)c1 [Compound P-0142],IC50 (Jnk2): ≤ 10 µM
–,–,–,≤ 10 µM,≤ 10 µM,≤ 10 µM,≤ 10 µM,–,≤ 10 µM,–,Cc1cc(C(=O)c2c[nH]c3ncc(-c4cccc(N)c4)cc23)nn1C [Compound P-0117],IC50 (Met): ≤ 10 µM; IC50 (Stk6): ≤ 10 µM
–,≤ 10 µM,–,–,–,≤ 10 µM,–,–,≤ 10 µM,≤ 10 µM,O=C(c1ccccc1F)c1c[nH]c2ncccc12 [Compound P-0158],–
